Test results reported in patent US8703964B2, “Bendamustine cyclopolysaccharide compositions” (Supratek Pharma Inc., priority 2009, dated 2014).
Where two headings read alike, the source gives them in different places.

Legend:
[1] = test system: Human breast carcinoma MDA-MB 231 s.c. solid tumors; experiment: Human breast carcinoma MDA-MB 231 s.c. solid tumors in nude mice (Example 29); assay type: in vivo, balb/c nu/nu mice; conditions: for Tumor weight after treatment, Average (SEM): 30 mg/kg days 1, 2, 9, 10
Protocol: balb/c mice aged 5 to 6 weeks were purchased from Charles River Canada Inc. The animals were kept 5 per cage with an air filter cover under light (12 light/dark cycle, light on at 6 H00) and temperature (22° C.±1° C.)-controlled environment. All manipulations of animals were performed under a sterilized laminar hood. The animals had ad libitum access to Purina mouse chow (Pro Lab PMH 4018, Trademark of Agway, Syracuse, N.Y.) and water. These animal studies were conducted according to the “Guidelines for Care and Use of Experimental Animals”. Tumor Cell Culture: Human breast cancer cells MDA-MB 231 were cultured in the appropriated culture medium. The cells were harvested in their logarithmic growth phase for the preparation of tumor implantation. Tumor Implantation: Human tumor or myeloma cells (2.5 to 5.0×10^6 cells) were implanted subcutaneously in 0.200 mL of medium containing 30% Matrigel on the two flanks of balb/c nu/nu mice through a 1 to 2 cm long 20-gauge needle. Treatments: 2 to 3 weeks after tumor cell implantation, animals that developed s.c. solid tumors were selected and divided into several homogeneous groups (n=5 animals per group or dose) with respect to tumor size (0.5 to 0.8 cm in diameter). The treatments were performed next day. The animals were dosed with the following dosing solutions. Control: (0.9%, NaCl) Compositions:
Subcutaneous solid tumor measurements were performed on the day of first injection and at 3- to 4-day intervals thereafter. The two largest perpendicular diameters of each tumor were measured with calipers and tumor sizes were estimated using the formula: TV=L×W/2 where TV: tumor volume; L: length; W: width. The body weights of animals were also noted.
The experiment was performed employing the procedures described in Example 28, using the following compositions for treatment:
non-formulated Bendamustine, (30 mg/kg)
Bendamustine (30 mg/kg) in 20% SBECD, 1% LMWP (formulated BM)
The treatment was performed on days 1, 2, 9, and 10.

[2] = Pharmacokinetics of bendamustine dosed to rats, composition with SBECD and LMWP (Example 25); assay type: in vivo, Female Sprague-Dawley rats; conditions: i.v. 10 mg/kg
Protocol: Control: 5 mg/mL bendamustine hydrochloride, 10.2 mg/mL of mannitol in 0.9% NaCl; dose of 10 mg/kg
5 mg/mL bendamustine hydrochloride, 20% w/w sodium sulfobutyl ether β-cyclodextrin, 10.2 mg/g mannitol in water; dose of 10 mg/kg.
5 mg/mL bendamustine hydrochloride, 20% w/w sodium sulfobutyl ether β-cyclodextrin, 1% LMWP, 10.2 mg/g mannitol in water; dose of 10 mg/kg.
Female Sprague-Dawley rats (250-350 g). The animals were kept three per cage with an air filter cover under light (12 h light/dark cycle, light on at 06 h00) and controlled temperature 22° C.+/−1° C. All manipulations with the animals were performed under a sterilized laminar hood. The animals had ad libitum access to Purina mouse chow and water. The animals were fasted overnight and anesthetized, before dosing. Dosing and Sampling: The bendamustine compositions and control were administered intravenously to rats via a tail vein. Blood samples were collected 5, 15, 30, 45 min, 1, 1.5, 2, 3 and 4 hrs post-injection. The rats were anesthetized by general inhalation of isoflurane. The blood samples were collected from the jugular vein with a heparinized tube and kept on ice. The sample was immediately centrifuged, and the plasma separated. The plasma samples were immediately extracted. Sample Extraction and Analysis: The plasma samples 0.100 mL were transferred to plastic tubes. The samples were extracted with 0.400 mL of 100 mM HCl in acetonitrile while being shaken vigorously for 30 seconds. The samples were centrifuged at 10000 RPM for 5 minutes. The supernatant was separated. The samples were frozen in dry ice and kept at −80° C. until HPLC analysis. The aliquots of 20 microliters were injected into HPLC for analysis. The HPLC Conditions: C18 reversed phase column 50×4.6 mm, Symmetry/Shield 3.5 micrometer Column temperature 30° C. Flow rate 1.5 mL/min Injection volume 20 microliters Fluorescence detection at wavelengths: excitation 327 nm, emission 420 nm Mobile phase: Buffer A: 5% acetonitrile 0.1% TFA Buffer B: 90% acetonitrile 0.1% TFA Run time: 10 min The pharmacokinetic profiles of Bendamustine for tested composition versus the control is shown in Table 9 below.

[3] = test system: RPMI8226 cells; experiment: Cytotoxicity of bendamustine compositions pre-incubated with media, WST-1 (Example 23); assay type: cell-based; conditions: for Cell growth: RPMI8226, 72 h; for IC50: Homo sapiens, RPMI-8226, read-out: IC50 of bendamustine, RPMI8226
Protocol: BM and SBECD/LMWP formulation (40 mg/ml BM in 20% SBECD, 1% LMWP) were incubated in DMEM medium containing 10% FBS for 0, 1, or 4 h and then were added in varying concentrations to RPMI8226 cells. During BM treatment, concentrations of SBECD and LMWP were kept constant in culture medium at […], respectively. Cells were then grown for 72 h. The drug cytotoxicity was evaluated using WST-1 procedure.

In the case of `Cn1c(CCCC(=O)O)nc2cc(N(CCCl)CCCl)ccc21` [BM, 4-[5-[bis(2-chloroethyl)amino]-1-methylbenzimidazol-2-yl]butanoic acid], the “Tumor weight after treatment, Average (SEM)” value (“Tumor weight … (SEM)” below) ([1]; day 0) is reported as 0.139 (0.013) g, the “Tumor weight … (SEM)” value ([1]; day 2) is reported as 0.178 (0.027) g and the “Tumor weight … (SEM)” value ([1]; day 4) is reported as 0.202 (0.039) g. The “Tumor weight … (SEM)” value ([1]; day 6) was 0.259 (0.049) g, the “Tumor weight … (SEM)” value ([1]; day 8) was 0.295 (0.054) g and the “Tumor weight … (SEM)” value ([1]; day 10) was 0.319 (0.044) g. The “Tumor weight … (SEM)” value ([1]; day 12) was 0.361 (0.050) g, the “Tumor weight … (SEM)” value ([1]; day 14) was 0.417 (0.054) g and the “Tumor weight … (SEM)” value ([1]; day 16) was 0.487 (0.067) g. The “Inhibition % vs control (on day 16)” value ([1]; 30 mg/kg, Day 1, 2, 9, 10) was 38.3%, the “Tumor weight on day 16” value ([1]; 30 mg/kg, Day 1, 2, 9, 10, right flank tumors only) was 0.487 ± 0.067 g and the concentration at 1 h ([2]; female, Sprague-Dawley, rat, plasma, iv, 1 h post injection, read-out: Concentration of bendamustine in rat plasma, Mean (SEM)) was 47 ng/mL. The concentration at 3 h ([2]; female, Sprague-Dawley, rat, plasma, iv, 3 h post injection, read-out: Concentration of bendamustine in rat plasma, Mean (SEM)) was 0 ng/mL, the “Concentration of bendamustine in rat plasma, Mean (SEM)” value (from here on “Concentration of bendamustine … (SEM)”) ([2]; 0.08 h post injection) was 6045 (388) ng/mL and the “Concentration of bendamustine … (SEM)” value ([2]; 0.25 h post injection) was 2428 (250) ng/mL. The “Concentration of bendamustine … (SEM)” value ([2]; 0.5 h post injection) was 520 (105) ng/mL, the “Concentration of bendamustine … (SEM)” value ([2]; 0.75 h post injection) was 145 (35) ng/mL and the “Concentration of bendamustine … (SEM)” value ([2]; 1.5 h post injection) was 8 (1) ng/mL. The “Concentration of bendamustine … (SEM)” value ([2]; 2 h post injection) was 2 (1) ng/mL, the Cell growth ([3]; Bendamustine 1 uM, pre-incubated in medium 0 h) was 100% and the Cell growth ([3]; Bendamustine 1 uM, pre-incubated in medium 1 h) was 100%. The Cell growth ([3]; Bendamustine 1 uM, pre-incubated in medium 4 h) was 100%, the Cell growth ([3]; Bendamustine 15 uM, pre-incubated in medium 0 h) was 83% and the Cell growth ([3]; Bendamustine 15 uM, pre-incubated in medium 1 h) was 100%. The Cell growth ([3]; Bendamustine 15 uM, pre-incubated in medium 4 h) was 100%, the Cell growth ([3]; Bendamustine 31 uM, pre-incubated in medium 0 h) was 70% and the Cell growth ([3]; Bendamustine 31 uM, pre-incubated in medium 1 h) was 100%. For the same molecule, the Cell growth ([3]; Bendamustine 31 uM, pre-incubated in medium 4 h) was 100%, the Cell growth ([3]; Bendamustine 62 uM, pre-incubated in medium 0 h) was 46% and the Cell growth ([3]; Bendamustine 62 uM, pre-incubated in medium 1 h) was 106%. The Cell growth ([3]; Bendamustine 62 uM, pre-incubated in medium 4 h) was 104%, the Cell growth ([3]; Bendamustine 125 uM, pre-incubated in medium 0 h) was 11% and the Cell growth ([3]; Bendamustine 125 uM, pre-incubated in medium 1 h) was 20%. It also gave a Cell growth ([3]; Bendamustine 125 uM, pre-incubated in medium 4 h) of 105%, a Cell growth ([3]; Bendamustine 250 uM, pre-incubated in medium 0 h) of −23% and a Cell growth ([3]; Bendamustine 250 uM, pre-incubated in medium 1 h) of −45%. It also gave a Cell growth ([3]; Bendamustine 250 uM, pre-incubated in medium 4 h) of 75%, a Cell growth ([3]; Bendamustine 500 uM, pre-incubated in medium 0 h) of −87% and a Cell growth ([3]; Bendamustine 500 uM, pre-incubated in medium 1 h) of −85%. It also gave a Cell growth ([3]; Bendamustine 500 uM, pre-incubated in medium 4 h) of 8%, a Cell growth ([3]; Bendamustine 1000 uM, pre-incubated in medium 0 h) of −98% and a Cell growth ([3]; Bendamustine 1000 uM, pre-incubated in medium 1 h) of −102%. For the same molecule, the Cell growth ([3]; Bendamustine 1000 uM, pre-incubated in medium 4 h) was −99%, the IC50 ([3]; time of pre-incubation 0 h) was 62 µM and the IC50 ([3]; time of pre-incubation 1 h) was 106 µM. The IC50 ([3]; time of pre-incubation 4 h) was 390 µM, the “LC50” value ([3]; RPMI8226, change of LC50 (50% death of cells) per hour of pre-incubation in medium) was 107 ± 11 µM/h and the “TGI” value ([3]; RPMI8226, change of TGI (total growth inhibition) per hour of pre-incubation in medium) was 98 ± 18 µM/h.
